Blank lines part the entries; values can stand above or below the compound they belong to.
How the values were obtained:
[1] = cytotoxicity of additional thiazole compounds (Table 3); assay type: cell-based; details: cell line not given
Source text: (§1) The additional thiazole compounds were synthesized and tested for antimigration efficacy and cytotoxicity, with results shown in TABLE 3.

[2] = antimigration efficacy of additional thiazole compounds (Table 3); assay type: cell-based; details: cell line not given; read-out: IC50 (anti-migration)
Source text: as §1

SMILES: O=C(Nc1nc(-c2ccccc2Cl)cs1)c1ccccc1 [Compound 14b, N-(4-(2-Chlorophenyl)thiazol-2-yl)benzamide]
Cytotoxicity (Survival at 1 μM) [1]: 102.4%
IC50 [2]: 15000 nM

SMILES: CCCN(C(=O)c1ccccc1)c1nc(-c2ccccc2)cs1 [Compound 8b, N-(4-Phenylthiazol-2-yl)-N-propylbenzamide]
Cytotoxicity (Survival at 1 μM) [1]: 116.0%
IC50 [2]: 32.4 nM

SMILES: COc1cc(-c2csc(NC(=O)c3ccc(Cl)cc3)n2)cc(OC)c1OC [Compound 14l, 4-Chloro-N-(4-(3,4,5-trimethoxyphenyl)thiazol-2-yl)benzamide]
Cytotoxicity (Survival at 1 μM) [1]: 85.6%
IC50 [2]: > 25000 nM

SMILES: Cc1csc(NC(=O)c2ccccc2)n1 [Compound 14a, N-(4-Methylthiazol-2-yl)benzamide]
Cytotoxicity (Survival at 1 μM) [1]: 103.1%
IC50 [2]: 12000 nM

SMILES: Cc1ccc(-c2csc(NS(=O)(=O)c3ccccc3)n2)c(C)c1 [Compound 10, N-(4-(2,4-Dimethylphenyl)thiazol-2-yl)benzenesulfonamide]
Cytotoxicity (Survival at 1 μM) [1]: 137.4%
IC50 [2]: 11000 nM

SMILES: CCn1c(-c2ccccc2)csc1=NC(=O)c1ccccc1 [Compound 8a, N-(4-phenyl-3-ethylthiazol-2(3H)-ylidene)benzamide]
Cytotoxicity (Survival at 1 μM) [1]: 128.9%
IC50 [2]: 883 nM

SMILES: C#CCn1c(-c2ccc(C)cc2C)csc1=NC(=O)c1ccccc1 [Compound 5r, N-(4-(2,4-Dimethylphenyl)-3-(prop-2-yn-1-yl)thiazol-2(3H)-ylidene)benzamide]
Cytotoxicity (Survival at 1 μM) [1]: 70.2%
IC50 [2]: 11000 nM

SMILES: Cc1ccc(-c2cnc(NC(=O)c3ccccc3)s2)cc1 [Compound 14j, N-(5-(p-Tolyl)thiazol-2-yl)benzamide]
Cytotoxicity (Survival at 1 μM) [1]: 55.6%
IC50 [2]: 308 nM

SMILES: CCN(C(=O)c1ccccc1)c1nc(-c2ccccc2)cs1 [Compound 7a, N-Ethyl-N-(4-phenylthiazol-2-yl)benzamide]
Cytotoxicity (Survival at 1 μM) [1]: 68.5%
IC50 [2]: 565 nM

SMILES: Cc1sc(NC(=O)c2ccccc2)nc1-c1ccc(F)cc1 [Compound 14i, N-(4-(4-Fluorophenyl)-5-methylthiazol-2-yl)benzamide]
Cytotoxicity (Survival at 1 μM) [1]: 53.7%
IC50 [2]: 9100 nM

SMILES: O=C(Nc1nc(-c2ccc(Br)cc2)cs1)c1ccccc1 [Compound 14d, N-(4-(4-Bromophenyl)thiazol-2-yl)benzamide]
Cytotoxicity (Survival at 1 μM) [1]: 82.2%
IC50 [2]: 9500 nM

SMILES: CCCn1c(-c2ccc(C)cc2C)csc1=NC(=O)c1ccccc1 [Compound 5m, N-(4-(2,4-Dimethylphenyl)-3-propylthiazol-2(3H)-ylidene)benzamide]
Cytotoxicity (Survival at 1 μM) [1]: 85.0%
IC50 [2]: 176 nM

SMILES: CCCCCCn1c(-c2ccc(C)cc2C)csc1=NC(=O)c1ccccc1 [Compound 5o, N-(4-(2,4-Dimethylphenyl)-3-hexylthiazol-2(3H)-ylidene)benzamide]
Cytotoxicity (Survival at 1 μM) [1]: 90.0%
IC50 [2]: 87 nM

SMILES: CCCn1c(-c2ccccc2)csc1=NC(=O)c1ccccc1 [Compound 7b, N-(4-Phenyl-3-propylthiazol-2(3H)-ylidene)benzamide]
Cytotoxicity (Survival at 1 μM) [1]: 100.0%
IC50 [2]: 432 nM

SMILES: O=C(Nc1nc(-c2cccc(Cl)c2)cs1)c1ccccc1 [Compound 14e, N-(4-(3-Chlorophenyl)thiazol-2-yl)benzamide]
Cytotoxicity (Survival at 1 μM) [1]: 71.4%
IC50 [2]: 123 nM

SMILES: C#CCn1c(-c2ccccc2)csc1=NC(=O)c1ccccc1 [Compound 7d, N-(4-Phenyl-3-(prop-2-yn-1-yl)thiazol-2(3H)-ylidene)benzamide]
Cytotoxicity (Survival at 1 μM) [1]: 63.0%
IC50 [2]: 64.7 nM

SMILES: O=C(Nc1nc(-c2cc(C(F)(F)F)cc(C(F)(F)F)c2)cs1)c1ccccc1 [Compound 14f, N-(4-(3,5-Bis(trifluoromethyl)phenyl)thiazol-2-yl)benzamide]
Cytotoxicity (Survival at 1 μM) [1]: 85.8%
IC50 [2]: 336 nM

SMILES: CCn1c(-c2ccc(C)cc2C)csc1=NC(=O)c1ccccc1 [Compound 5l, N-(4-(2,4-Dimethylphenyl)-3-ethylthiazol-2(3H)-ylidene)benzamide]
Cytotoxicity (Survival at 1 μM) [1]: 141.8%
IC50 [2]: 5560 nM

SMILES: Cc1sc(NC(=O)c2ccccc2)nc1-c1ccccc1 [Compound 14h, N-(5-Methyl-4-phenylthiazol-2-yl)benzamide]
Cytotoxicity (Survival at 1 μM) [1]: 99.0%
IC50 [2]: > 25000 nM

SMILES: Cc1ccc(-c2csc(N(C)S(=O)(=O)c3ccccc3)n2)c(C)c1 [Compound 12, N-(4-(2,4-Dimethylphenyl)thiazol-2-yl)-N-methylbenzenesulfonamide]
Cytotoxicity (Survival at 1 μM) [1]: 116.7%
IC50 [2]: > 25000 nM

SMILES: C#CCN(C(=O)c1ccccc1)c1nc(-c2ccc(C)cc2C)cs1 [Compound 6, N-(4-(2,4-Dimethylphenyl)thiazol-2-yl)-N-(prop-2-yn-1-yl)benzamide]
Cytotoxicity (Survival at 1 μM) [1]: 106.4%

The next lines start with results.

IC50 [2]: 1070 nM
SMILES: COc1cc(-c2cs/c(=N/C(=O)c3ccccc3)n2C)cc(OC)c1OC [Compound 15g, N-(4-(3,4,5-Trimethoxyphenyl)-3-methylthiazol-2(3H)-yliene)-benzamide]
Cytotoxicity (Survival at 1 μM) [1]: 88.4%

IC50 [2]: 125 nM
SMILES: Cn1c(-c2ccc(Br)cc2)csc1=NC(=O)c1ccccc1 [Compound 15d, N-(4-(4-Bromophenyl)-3-methylthiazol-2(3H)-ylidene)benzamide]
Cytotoxicity (Survival at 1 μM) [1]: 59.3%

IC50 [2]: 5040 nM
SMILES: COc1ccc(C(=O)N(C)c2nc(-c3cc(OC)c(OC)c(OC)c3)cs2)c(OC)c1 [Compound 16i, 2,4-Dimethoxy-N-methyl-N-(4-(3,4,5-trimethoxyphenyl)thiazol-2-yl)benzamide]
Cytotoxicity (Survival at 1 μM) [1]: 118.5%

IC50 [2]: > 50000 nM
SMILES: COc1cccc(C(=O)N=c2scc(-c3cc(OC)c(OC)c(OC)c3)n2C)c1 [Compound 15m, 3-Methoxy-N-(3-methyl-4-(3,4,5-trimethoxyphenyl)thiazol-2(3H)-ylidene)benzamide]
Cytotoxicity (Survival at 1 μM) [1]: 103.5%

IC50 [2]: 108 nM
SMILES: COc1cc(-c2csc(N(C)C(=O)c3cccc(OC)c3OC)n2)cc(OC)c1OC [Compound 16k, 2,3-Dimethoxy-N-methyl-N-(4-(3,4,5-trimethoxyphenyl)thiazol-2-yl)benzamide]
Cytotoxicity (Survival at 1 μM) [1]: 117.6%

IC50 [2]: 96 nM
SMILES: Cn1c(-c2cc(C(F)(F)F)cc(C(F)(F)F)c2)csc1=NC(=O)c1ccccc1 [Compound 15f, N-(4-(3,5-Bis(trifluoromethyl)phenyl)-3-methylthiazol-2(3H)-ylidene)benzamide]
Cytotoxicity (Survival at 1 μM) [1]: 79.8%

IC50 [2]: 1620 nM
SMILES: Cc1sc(N(C)C(=O)c2ccccc2)nc1-c1ccc(F)cc1 [Compound 16e, N-(4-(4-Fluorophenyl)-5-methylthiazol-2-yl)-N-methylbenzamide]
Cytotoxicity (Survival at 1 μM) [1]: 107.6%

IC50 [2]: 197 nM
SMILES: Cc1sc(=NC(=O)c2ccccc2)n(C)c1-c1ccccc1 [Compound 15h, N-(3,5-Dimethyl-4-phenylthiazol-2(3H)-ylidene)benzamide]
Cytotoxicity (Survival at 1 μM) [1]: 68.4%

IC50 [2]: > 25000 nM
SMILES: Cc1ccc(-c2cn(C)/c(=N\C(=O)c3ccccc3)s2)cc1 [Compound 15j, N-(3-Methyl-5-(p-toyl)thiazol-2(3H)-ylidene)benzamide]
Cytotoxicity (Survival at 1 μM) [1]: 112.6%

IC50 [2]: 268 nM
SMILES: Cn1c(-c2ccccc2Cl)csc1=NC(=O)c1ccccc1 [Compound 15b, N-(4-(2-Chlorophenyl)-3-methylthiazol-2(3H)-ylidene)benzamide]
Cytotoxicity (Survival at 1 μM) [1]: 72.2%

IC50 [2]: 104 nM
SMILES: Cn1c(C2CC2)csc1=NC(=O)c1ccccc1 [Compound 15n, N-(4-Cyclopropyl-3-methylthiazol-2(3H)-ylidene)benzamide]
Cytotoxicity (Survival at 1 μM) [1]: 90.7%

IC50 [2]: 758 nM
SMILES: COc1cc(-c2csc(=NC(=O)c3ccc(Cl)cc3)n2C)cc(OC)c1OC [Compound 15l, 4-Chloro-N-(3-methyl-4-(3,4,5-trimethoxyphenyl)thiazol-2(3H)-ylidene)benzamide]
Cytotoxicity (Survival at 1 μM) [1]: 77.6%

IC50 [2]: > 25000 nM
SMILES: COc1ccc(C(=O)N(C)c2nc(-c3cc(OC)c(OC)c(OC)c3)cs2)cc1OC [Compound 16h, 3,4-Dimethoxy-N-methyl-N-(4-(3,4,5-trimethoxyphenyl)thiazol-2-yl)benzamide]
Cytotoxicity (Survival at 1 μM) [1]: 101.9%

IC50 [2]: 312 nM
SMILES: COc1ccc(C(=O)N(C)c2nc(-c3cc(OC)c(OC)c(OC)c3)cs2)cc1 [Compound 16g, 4-Methoxy-N-methyl-N-(4-(3,4,5-trimethoxyphenyl)thiazol-2-yl)benzamide]
Cytotoxicity (Survival at 1 μM) [1]: 100.0%

IC50 [2]: 41.6 nM
SMILES: CN(C(=O)c1ccccc1)c1nc(-c2ccccc2Cl)cs1 [Compound 16a, N-(4-(2-Chlorophenyl)thiazol-2-yl)-N-methylbenzamide]
Cytotoxicity (Survival at 1 μM) [1]: 88.9%

IC50 [2]: 317 nM
SMILES: CN(C(=O)c1ccccc1)c1nc(-c2ccc(Br)cc2)cs1 [Compound 16c, N-(4-(4-Bromophenyl)thiazol-2-yl)-N-methylbenzamide]
Cytotoxicity (Survival at 1 μM) [1]: 65.4%

IC50 [2]: 847 nM
SMILES: Cc1sc(=NC(=O)c2ccccc2)n(C)c1-c1ccc(F)cc1 [Compound 15i, N-(4-(4-Fluorophenyl)-3,5-dimethylthiazol-2(3H)-ylidene)benzamide]
Cytotoxicity (Survival at 1 μM) [1]: 83.8%

IC50 [2]: 8000 nM
SMILES: COc1ccc(C(=O)N=c2scc(-c3cc(OC)c(OC)c(OC)c3)n2C)cc1 [Compound 15k, 4-Methoxy-N-(3-methyl-4-(3,4,5-trimethoxyphenyl)thiazol-2(3H)-ylidene)benzamide]
Cytotoxicity (Survival at 1 μM) [1]: 105.6%

IC50 [2]: 1090 nM
SMILES: Cc1ccc(-c2cnc(N(C)C(=O)c3ccccc3)s2)cc1 [Compound 16f, N-Methyl-N-(5-(p-tolyl)thiazol-2-yl)benzamide]
Cytotoxicity (Survival at 1 μM) [1]: 59.3%

IC50 [2]: 367 nM
SMILES: Cn1c(-c2cccc(Cl)c2)csc1=NC(=O)c1ccccc1 [Compound 15e, N-(4-(3-Chlorophenyl)-3-methylthiazol-2(3H)-ylidene)benzamide]
Cytotoxicity (Survival at 1 μM) [1]: 35.2%

IC50 [2]: 15000 nM
SMILES: Cc1csc(=NC(=O)c2ccccc2)n1C [Compound 15a, N-(3,4-Dimethylthiazol-2(3H)-ylidene)benzamide]
Cytotoxicity (Survival at 1 μM) [1]: 102.6%

— patent US9650369B2, “Anti-migration and anti-invasion thiazole analogs for treatment of cellular proliferative disease” (XAVIER UNIVERSITY OF LOUISIANA, priority 2012, dated 2017)
